“Also recorded” adds a separate entry of the source.
Legend:
[1] = tested on: Uveal melanoma cells (OMM1.3, MM28, MP46, MP65); assay: Cell survival assay (PrestoBlue), 2D-cultures; format: cell-based, human; settings: increasing concentrations, PrestoBlue after 96 h / 72 h
Procedure: Uveal melanoma cells (OMM1.3, MM28, MP46, MP65) were seeded at 5,000 cells/well in a 96-well plate and treated with increasing concentrations of AM23, salinomycin or staurosporine as positive control as indicated on the figure. The condition “milieu RPMI” represents medium without cells. After 96 h of incubation, cells were incubated with PrestoBlue reagent according to manufacture instructions. The absorbance per well was measured with a microplate reader. The data were then analyzed using excel.
Uveal melanoma cells were seeded at 5,000 cells/well in a 96-well plate and treated with salinomycin or ironomycin as well as a positive control (staurosporin, 500 nM). After 72 h of incubation, cells were treated with PrestoBlue reagent according to manufacture instructions (Thermofisher). The absorbance per well was measured with a microplate reader. The data were then analyzed using excel software.
Uveal melanoma cells are known to hardly enter into apoptosis in response to treatments. Thus, we investigated the effects of salinomycin (Sal) and its derivate called ironomycin (AM23) that have been shown, in different cancer cells, to trigger ferroptosis, a type of cell death based on accumulation of iron into lysosomes and subsequent lysosomal membrane permeabilization. We treated a panel of uveal melanoma cells, i.e the human metastatic OMM1.3 (BAP1+) and MM28 (BAP1+) cells, and the human primary MP46 (BAP1−) and MP65 (BAP1−) cells, with Sal or its derivate AM23 to determine if these drugs can represent potential therapeutic options.

[2] = tested on: primary uveal melanoma cells (MP46 and MP65) or metastatic uveal melanoma cells (OMM1.3) expressing or not BAP1; assay: Colony formation assay; format: cell-based, human; settings: MP46, MP65, OMM1.3, whether BAP1 is expressed or not; 7 days
Source text: FIG. 6: Colony formation assay of primary uveal melanoma cells (MP46 and MP65) or metastatic uveal melanoma cells (OMM1.3) expressing or not BAP1 after seeding them for 7 days upon treatment with the drugs indicated on the figure. Representative wells are shown.

ferritin = assay: Western blot of ferritin expression; format: cell-based, human; settings: OMM1.3 and MP46 cells; AM23 100 nM or salinomycin 0.5 mM for 48 h; immunoblot
Procedure: FIG. 5: Effect of AM23 or salinomycin on ferritin expression. OMM1.3 and MP46 human uveal melanoma cells were left untreated (UNT) or were treated with DMSO (Ctl), AM23 (100 nM) or salinomycin (0.5 mM) for 48 h. Cell lysates were analysed by immunoblot with antibodies to ferritin. Actin was used as a loading control.
Briefly, uveal melanoma cell lysates (50 μg) were separated using SDS-PAGE, transferred onto a PVDF membrane and subsequently exposed to the appropriate antibodies, anti-ferritin (#sc376594, 1/1,000) and anti-actin (sc47778, 1/1,000) from Santa Cruz Biotechnology. The proteins were visualized using the ECL system (Amersham). The western blots shown are representative of at least 3 independent experiments.

[3] = tested on: MP46 and OMM1.3 human uveal melanoma cells; assay: Fe (ii) detection in lysosomes with RhoNox-M fluorescent probe; format: cell-based; settings: AM23 30 nM or 100 nM, salinomycin 0.5 mM, 48 h, then RhoNox-M 1 h, compared to control cells
Procedure: A. MP46 and B. OMM1.3 human uveal melanoma cells were seeded at 5000 cells/well on a glass coverslip and were treated with DMSO (Ctl), AM23 (30 nM or 100 nM) or salinomycin (0.5 mM) for 48 h and then with RhoNox-M for 1 h for Fe 2+ detection. Representative confocal fluorescence microscopy images.
To assess whether AM23 triggers lysosomal iron accumulation, we evaluated whether endocytic vesicles contained Fe (ii) as previously reported. To this aim, the Fe (ii)-specific turn-on fluorescent probe RhoNox-M, which can detect the presence of Fe (ii) in lysosomes, was used. […] In response to the ensuing cytoplasmic depletion of iron, cells triggered in lysosomes the degradation of ferritin, which stores cellular iron, leading to further iron loading in this organelle.

[4] = tested on: Primary (MP46) or metastatic (OMM1, OMM2.5, OMM1.3) uveal melanoma cells; assay: PrestoBlue proliferation/survival assay (FIG. 7); format: cell-based, human; settings: MP46, OMM1, OMM2.5, OMM1.3, increasing concentrations, 72 h
Procedure: FIG. 7: Primary (MP46) or metastatic (OMM1, OMM2.5, OMM1.3) uveal melanoma cells were seeded at 3000 cells/well in a 96 well plate and treated with increasing concentrations of salinomycin, AM23 or AM5. After 72 h of incubation, cells were treated with PrestoBlue reagent according to manufacture instructions. The absorbance per well was measured with a microplate reader. The data were then analyzed using Prism8. Histograms bars represent the average of three replicates #standard error of the mean (s.e.m).

[5] = tested on: PLX-resistant metastatic cutaneous melanoma cells; assay: Cell count of PLX-sensitive and resistant cutaneous melanoma cells; format: cell-based; set-up: dose or concentration left out as unconfirmed; settings: increasing concentrations of AM23 or AM5 in presence or absence of PLX; cells counted after 72 h; FIG. 1
Procedure: PLX-sensitve and resistant cutaneous melanoma cells, seeded at 150,000 cells/well in 6-well dishes, were treated with increasing concentrations of AM23 or AM5 in presence or absence of PLX ([…]). Cells were manually counted after 72 h.
PLX-sensitve and resistant cutaneous melanoma cells were seeded at 150,000 cells/well in 6-well dishes. They were treated with increasing concentrations of AM23 or AM5 in presence or absence of PLX ([…]). Cells were manually counted after 72 h.

[6] = tested on: Uveal melanoma cells (OMM1.3, MM28, MP65 and MP46); assay: Spheroid (melanosphere) formation, 3D-cultures; format: cell-based, human; settings: AM23 100 nM (or 1 mM); low attachment plates; pictures after 8 days
Procedure: Uveal melanoma cells (OMM1.3, MM28, MP65 and MP46) were seeded at 5000 cells/well in 6-well low attachment plates and were left untreated (0) or were treated with DMSO (Ctl) or AM23 (100 nM or 1 mM) 24 hours later. Representative pictures taken after 8 days are shown.
Uveal melanoma cells were seeded at a density of 5,000 cells per well and grown in MEF medium (R&D systems, #AR005) supplemented with 4 ng/ml FGF2 in low adherence plates. The following day, wells were supplemented with ironomycin (100 nM or 1 mM). Photographs were taken using a phase contrast microscope (EVOS XL Core Imaging System).

Row | SMILES | proliferation/survival of uveal melanoma cells in 2D-cultures [1] | proliferation/survival of uveal melanoma cells in 2D-cultures ([1]; listed as Sal) | ability of uveal melanoma cells to form colonies [2] | ferritin expression (ferritin) | Fe (ii) / iron accumulation in lysosomes (RhoNox-M fluorescence) [3] | Fe (ii) / iron accumulation in lysosomes (RhoNox-M fluorescence) ([3]; listed as Sal) | uveal melanoma cell proliferation/survival (FIG. 7) [4] | resensitization of PLX-resistant cells to PLX effects (cell count) [5] | melanosphere formation / cell survival in 3D-cultures [6]
1 | CC[C@@H](C(=O)O)C1CC[C@H](C)[C@H]([C@@H](C)[C@H](O)[C@H](C)C(=O)[C@H](CC)[C@H]2OC3(C=C[C@@H](O)C4(CC[C@@](C)([C@H]5CC[C@](O)(CC)[C@H](C)O5)O4)O3)[C@H](C)C[C@@H]2C)O1 (stereo in doubt) [Salinomycin, (2R)-2-[(5S,6R)-6-[(1S,2S,3S,5R)-5-[(2S,5R,7S,9S,10S, 12R, 15R)-2-[(2R,5R,6S)-5-ethyl-5-hydroxy-6-methyl-2-tetrahydropyranyl]-15-hydroxy-2,10,12-trimethyl-1,6,8-trioxadispiro[4.1.57.35]pentadec-13-en-9-yl]-2-hydroxy-1,3-dimethyl-4-oxoheptyl]-5-methyl-2-tetrahydropyranyl]butanoic acid, reference compound] | induces uveal melanoma cell death | reduced proliferation/survival | strong reduction | strongly reduced | induces Fe (ii) in lysosomes | exhibited fluorescent RhoNox-M-positive vesicles |  |  | 
2 | C#CCN[C@@H]1C=C[C@]2(O[C@H]([C@@H](CC)C(=O)[C@@H](C)[C@@H](O)[C@H](C)C3O[C@@H](C(CC)C(=O)O)CC[C@@H]3C)[C@@H](C)C[C@H]2C)O[C@@]12CC[C@@](C)([C@H]1CC[C@](O)(CC)[C@H](C)O1)O2 (stereo partly shown) [AM5] |  |  |  |  |  |  | decreases uveal melanoma cell proliferation/survival, yet with a little bit lower efficacy than AM23 |  | 
3 | C#CCN[C@@H]1C=C[C@]2(O[C@H]([C@@H](CC)C(=O)[C@@H](C)[C@@H](O)[C@H](C)[C@@H]3O[C@@H]([C@@H](CC)C(=O)O)CC[C@@H]3C)[C@@H](C)C[C@H]2C)O[C@@]12CC[C@@](C)([C@H]1CC[C@](O)(CC)[C@H](C)O1)O2 [AM23, (2R)-2-[(2R,5S,6R)-6-{(2S,3S,4S,6R)-6-[(2S,5S,7R,9S,10S,12R,15R)-2-[(2R,5R,6S)-5-Ethyl-5-hydroxy-6-methyltetrahydro-2H-pyran-2-yl]-2, 10,12-trimethyl-15-(2-propyn-1-ylamino)-1,6,8-trioxadispiro[4.1.5.3]pentadec-13-en-9-yl]-3-hydroxy-4-methyl-5-oxo-2-octanyl}-5-methyltetrahydro-2H-pyran-2-yl]butanoic acid] | induces uveal melanoma cell death; also recorded: reduced proliferation/survival |  | strong reduction | strongly reduced | induces Fe (ii) in lysosomes; also recorded: exhibited fluorescent RhoNox-M-positive vesicles |  |  | resensitizes PLX-resistant metastatic cutaneous melanoma cells to PLX effects | prevents melanosphere formation; also recorded: almost complete disappearance of melanospheres

From patent US20250041261A1, “METHODS AND COMPOSITIONS FOR TREATING MELANOMA” (INSTITUT NATIONAL DE LA SANTÉ ET DE LA RECHERCHE MÉDICALE, priority 2021, published 2025)
